Measured values: patent US8980610B2 (priority 2009, dated 2015)
Several values for one entry are separate records, joined by “and”; a condition that tells them apart may be missing. Equal values may be shown once. Read-outs that look alike come from different tables or passages of the source.

What was measured:
[1] = test system: MMV; type: cell-based, Murine minute virus; conditions: 2-8° C.; for RF (Reduction Factor): 5 mM Tris + 1.0M Arginine-HCl (pH 7.0)
[2] = test system: SuHV-1; type: cell-based, Suid herpesvirus 1
[3] = test system: X-MLV; type: cell-based, Xenotropic Murine leukemia virus
[4] = test system: X-MLV; type: cell-based, Xenotropic Murine leukemia virus; conditions: for RF (Reduction Factor) / Sample Titer: 2-8° C.
[5] = test system: polio virus; conditions: cited from earlier work
[6] = test system: X-MLV; test: TRITON X-100 X-MLV inactivation in GE2-Fcγ-Fcε clarified conditioned media, TCID50 assay; type: cell-based, Xenotropic Murine leukemia virus
Procedure: Virus inactivation kinetics obtained by exposure to low pH, TRITON® X-100 and arginine were studied using sample process intermediates of a recombinant antibody designated GE2-Fcγ-Fcε. All studies were performed at 2-8° C.
For the TRITON® X-100 inactivation studies, TRITON® X-100 was added to the GE2-Fcγ-Fcε clarified conditioned media (CCM) at concentrations of 0.10% (v/v) and 0.20% (v/v). MABSELECT™ (GE Healthcare Bio-Sciences Corp., Piscataway, N.J., USA) Protein-A chromatography eluates containing GE2-Fcγ-Fcε with the pH adjusted to 3.7 or 3.9 were used as the starting material for the low pH viral inactivation studies. Neutralized MABSELECT™ Eluate buffer (1.0 M arginine-HCl, ˜5 mM Tris, pH 7.3 (+/−) 0.5) and neutralized MABSELECT™ Eluate buffer containing GE2-Fcγ-Fcε were also used as process intermediates for the additional inactivation studies. The process intermediates used in these studies were known to be stable under the examined conditions.
TRITON® X-100 inactivation experiments were performed in duplicate using final concentrations of 0.10% or 0.20% (v/v) TRITON® X-100 in GE2-Fcγ-Fcε clarified conditioned media.

[7] = 5 mM Tris + 1.0M Arginine-HCl (pH 7.0), 2-8° C., 15 min
[8] = 5 mM Tris + 1.0M Arginine-HCl (pH 7.0), 2-8° C., 30 min
[9] = 5 mM Tris + 1.0M Arginine-HCl (pH 7.0), 2-8° C., 60 min
[10] = 5 mM Tris + 1.0M Arginine-HCl (pH 7.0), 2-8° C., 120 min
[11] = 5 mM Tris + 1.0M Arginine-HCl (pH 7.0), 2-8° C., 240 min (non-quenched)
[12] = 5 mM Tris + 1.0M Arginine-HCl (pH 7.0), 2-8° C., 240 min (quenched)
[13] = 1.0 M arginine-HCl, ~5 mM Tris, pH ~7.0, with GE2-Fcγ-Fcε 3.3 mg/mL, 2-8° C., 120 min
[14] = 0.10% (v/v) in GE2-Fcγ-Fcε clarified conditioned media, 2-8° C., 5 min
[15] = 0.10% (v/v) in GE2-Fcγ-Fcε clarified conditioned media, 2-8° C., 45 min
[16] = 0.10% (v/v) in GE2-Fcγ-Fcε clarified conditioned media, 2-8° C., 120 min
[17] = 0.20% (v/v) in GE2-Fcγ-Fcε clarified conditioned media, 2-8° C., 30 min
[18] = 0.20% (v/v) in GE2-Fcγ-Fcε clarified conditioned media, 2-8° C., 45 min

N=C(N)NCCC[C@H](N)C(=O)O [Arginine, arginine]
RF (Reduction Factor) ([1]; 240 min (non-quenched)): 0.30 and 0.17 | RF (Reduction Factor) ([1]; 240 min (quenched)): −0.25 | Adjusted titer of sample [1]: 6.83 Log10 TCID50/mL and 7.33 Log10 TCID50/mL | Adjusted titer of sample (Output virus titer) [1]: 7.38 Log10 TCID50/mL and 7.75 Log10 TCID50/mL | Titer of quenched sample [1]: 6.38 Log10 TCID50/mL and 6.75 Log10 TCID50/mL | Titer of sample from TCID50 assay [1]: 6.83 Log10 TCID50/mL and 7.33 Log10 TCID50/mL | Adjusted titer of sample ([1]; 15 min): 7.50 Log10 TCID50/mL and 7.25 Log10 TCID50/mL | Titer of quenched sample ([1]; 15 min): 6.50 Log10 TCID50/mL and 6.25 Log10 TCID50/mL | Adjusted titer of sample ([1]; 30 min): 7.63 Log10 TCID50/mL and 7.38 Log10 TCID50/mL | Titer of quenched sample ([1]; 30 min): 6.63 Log10 TCID50/mL and 6.38 Log10 TCID50/mL | Adjusted titer of sample ([1]; 60 min): 7.63 Log10 TCID50/mL and 7.75 Log10 TCID50/mL | Titer of quenched sample ([1]; 60 min): 6.63 Log10 TCID50/mL and 6.75 Log10 TCID50/mL | Adjusted titer of sample ([1]; 120 min): 7.50 Log10 TCID50/mL and 7.75 Log10 TCID50/mL | Titer of quenched sample ([1]; 120 min): 6.50 Log10 TCID50/mL and 6.75 Log10 TCID50/mL | Adjusted titer of sample [2, 7]: 2.95 Log10 TCID50/mL and 2.89 Log10 TCID50/mL | RF (Reduction Factor) [2, 7]: 2.30 and 2.11 | Titer of quenched sample [2, 7]: 1.95 Log10 TCID50/mL and 1.89 Log10 TCID50/mL | Adjusted titer of sample [2, 8]: ≦1.57 Log10 TCID50/mL | Titer of quenched sample [2, 8]: ≦0.57 Log10 TCID50/mL | Adjusted titer of sample [2, 9]: ≦1.57 Log10 TCID50/mL | Titer of quenched sample [2, 9]: ≦0.57 Log10 TCID50/mL | Adjusted titer of sample [2, 10]: ≦1.57 Log10 TCID50/mL | Titer of quenched sample [2, 10]: ≦0.57 Log10 TCID50/mL | Adjusted titer of sample [2, 11]: ≦1.53 Log10 TCID50/mL | Titer of sample from TCID50 assay [2, 11]: ≦1.53 Log10 TCID50/mL | Adjusted titer of sample (Output virus titer) [2, 12]: ≦1.57 Log10 TCID50/mL | Titer of quenched sample [2, 12]: ≦0.57 Log10 TCID50/mL | exposure time after which SuHV-1 titer was below the assay limit of detection ([2]; 1.0 M arginine (pH 7.0), duplicate runs): 30 min | X-MLV Reduction Factor in all of the arginine studies ([3]; 1 M arginine, with and without GE2-Fcγ-Fcε, 120 min of exposure): ≥ 4.1 | Output titer ([3]; 1.0 M arginine-HCl, ~5 mM Tris, pH ~7.0, no GE2-Fcγ-Fcε, 2-8° C., 120 min): ≦1.17 Log10 TCID50/mL | Output titer [3, 13]: ≦1.17 Log10 TCID50/mL | RF (Reduction Factor) [3, 13]: ≧4.2 | exposure time after which X-MLV was at, or below, detectable levels ([3]; neutral solution containing 1 M arginine, Runs 9-12): 15 min | RF (Reduction Factor) ([4]; 5 mM Tris + 0.10M Arginine-HCl (pH 7.0), 30 min): 0.2 and 0.3 | RF (Reduction Factor) ([4]; 5 mM Tris + 0.10M Arginine-HCl (pH 7.0), 120 min): 0.3 | RF (Reduction Factor) ([4]; 5 mM Tris + 0.50M Arginine-HCl (pH 7.0), 15 min): 1.7 and 1.6 | RF (Reduction Factor) ([4]; 5 mM Tris + 0.50M Arginine-HCl (pH 7.0), 30 min): 2.3 and 2.0 | RF (Reduction Factor) ([4]; 5 mM Tris + 0.50M Arginine-HCl (pH 7.0), 60 min): 2.7 and 2.5 | RF (Reduction Factor) ([4]; 5 mM Tris + 0.50M Arginine-HCl (pH 7.0), 120 min): 3.4 and 3.5 | RF (Reduction Factor) ([4]; 5 mM Tris + 0.50M Arginine-HCl (pH 7.0), 120 min, listed as arginine): 3.4 and 3.5 | Sample Titer ([4]; 15 min): 5.59 Log10 TCID50/mL and 5.71 Log10 TCID50/mL and 4.10 Log10 TCID50/mL and 4.04 Log10 TCID50/mL | Sample Titer ([4]; 30 min): 5.71 Log10 TCID50/mL and 5.29 Log10 TCID50/mL and 3.50 Log10 TCID50/mL and 3.68 Log10 TCID50/mL | Sample Titer ([4]; 60 min): 5.65 Log10 TCID50/mL and 5.29 Log10 TCID50/mL and 3.03 Log10 TCID50/mL and 3.15 Log10 TCID50/mL | X-MLV inactivation (in words) ([4]; pH 7): did not occur | inactivation of non-enveloped polio virus (in words) [5]: ineffective

NCC(=O)O [Glycine, glycine, reference compound]
Adjusted titer of sample ([4]; pH 7): 6.00 Log10 TCID50/mL and 5.50 Log10 TCID50/mL and 5.60 Log10 TCID50/mL and 5.38 Log10 TCID50/mL and 5.63 Log10 TCID50/mL | Adjusted titer of sample (Output virus titer) ([4]; pH 7): 5.63 Log10 TCID50/mL and 5.88 Log10 TCID50/mL | Titer of quenched sample ([4]; pH 7): 5.00 Log10 TCID50/mL and 4.50 Log10 TCID50/mL and 4.63 Log10 TCID50/mL and 4.38 Log10 TCID50/mL and 4.88 Log10 TCID50/mL | Titer of sample from TCID50 assay ([4]; pH 7): 5.60 Log10 TCID50/mL

TRITON ® X-100
Adjusted titer of sample [6, 14]: ≦2.00 Log10 TCID50/mL | Titer of quenched sample [6, 14]: ≦0.70 Log10 TCID50/mL | Adjusted titer of sample [6, 15]: ≦1.99 Log10 TCID50/mL | Titer of quenched sample [6, 15]: ≦0.69 Log10 TCID50/mL | Adjusted titer of sample (Output virus titer) [6, 16]: ≦1.99 Log10 TCID50/mL | RF (Reduction Factor) [6, 16]: ≥ 3.1 | Titer of quenched sample [6, 16]: ≦0.69 Log10 TCID50/mL | exposure time after which X-MLV was below detection limits ([6]; 0.10% and 0.20% TRITON X-100): 5 min | RF (Reduction Factor) ([6]; 0.20% (v/v) in GE2-Fcγ-Fcε clarified conditioned media, 2-8° C., 15 min): ≧3.1 | Adjusted titer of sample [6, 17]: ≦1.99 Log10 TCID50/mL | RF (Reduction Factor) [6, 17]: ≧3.1 | Titer of quenched sample [6, 17]: ≦0.69 Log10 TCID50/mL | Adjusted titer of sample [6, 18]: ≦1.99 Log10 TCID50/mL | RF (Reduction Factor) [6, 18]: ≧3.1 | Titer of quenched sample [6, 18]: ≦0.69 Log10 TCID50/mL | RF (Reduction Factor) ([6]; 0.20% (v/v) in GE2-Fcγ-Fcε clarified conditioned media, 2-8° C., 120 min): ≥ 2.6
